Reference: paper PMC9712021 (Advances in Pharmacological and Pharmaceutical Sciences, 2022)

Columns and labels:
[1] = parameters: method as in Oliveira [41]; settings: concentrations from 7.83 to 500 μg/mL; ref Oliveira [41]; cited from earlier work
[2] = test system: S. cerevisiae EG103 (SODWT); assay: S. cerevisiae central disc test, oxidative damage, strain SODWT; type: cell-based, Saccharomyces cerevisiae; parameters: unit not given here
Source text: (§1) The central disc test was done according to the method presented by Islam et al.. Superoxide dismutase (CuZnSOD-Sod1) is a cytosolic enzyme that is faulty in strain EG118, whereas mitochondrial SOD is faulty in strain EG110 (MnSOD-Sod2). The strain EG133 has both Sod1 and Sod2 defects, while EG223 has a cytosolic catalase deficiency (Cat1). While EG103 is a competent strain that is identical to the wild-type (SODWT), EG is a dual isogenic strain for the Sod1 and Cat1 genes.

[3] = test system: S. cerevisiae EG133 (Sod1∆Sod2∆); assay: S. cerevisiae central disc test, oxidative damage, strain Sod1∆Sod2∆; type: cell-based, Saccharomyces cerevisiae
Source text: as §1

[4] = test system: S. cerevisiae EG110 (Sod2∆); assay: S. cerevisiae central disc test, oxidative damage, strain Sod2∆; type: cell-based, Saccharomyces cerevisiae
Source text: as §1

[5] = Hemolytic activity in mice erythrocytes; type: cell-based, Mus musculus; settings: male, Swiss albino, mouse, pH 7.4, 37°C, 2 h
Protocol: This test was performed on adult Swiss albino mouse (Mus musculus) erythrocytes. The mouse was collected from the Central Animal House of the Federal University of Piaui, Brazil. It was allowed free access to standard food and water ad libitum and was kept under controlled lighting (12 h dark/light cycles) at 24 ± 2°C. Blood was collected from the retro-orbital plexus of the mouse (male, 24 gm body weight). Hemolytic activity in mouse erythrocytes was performed, according to Jamialahmadi et al..

[6] = test system: S. cerevisiae EG118 (Sod1∆); assay: S. cerevisiae central disc test, oxidative damage, strain Sod1∆; type: cell-based, Saccharomyces cerevisiae
Source text: as §1

[7] = test system: S. cerevisiae strains (SODWT, Sod1Δ, Sod2Δ, Cat1Δ, Sod1/Sod2Δ, Cat1Δ/Sod1Δ); assay: In vivo antioxidant (S. cerevisiae) test, all strains tested; type: cell-based, Saccharomyces cerevisiae; settings: all strains and concentrations tested
Source text: as §1

[8] = DPPH radical scavenging capacity assay; settings: 0.9–14.4 μg/mL; standard Trolox
Protocol: The DPPH assay was performed according to the method described by Abderrahim et al.. Briefly, a solution containing 300 μL of monoterpenes (0.9–14.4 μg/mL) was added to 2.7 mL of DPPH^• solution (0.5 mM in ethanol). After 30 min, the absorbance was measured using a spectrophotometer (Shimadzu, Japan) at 517 nm.

[9] = test system: S. cerevisiae EG223 (Cat1∆); assay: S. cerevisiae central disc test, oxidative damage, strain Cat1∆; type: cell-based, Saccharomyces cerevisiae
Source text: as §1

[10] = test system: S. cerevisiae EG (Sod1∆Cat1∆); assay: S. cerevisiae central disc test, oxidative damage, strain Sod1∆Cat1∆; type: cell-based, Saccharomyces cerevisiae
Source text: as §1

## C=CCc1ccc(OC)cc1 [Estragole, estragole]
[1]
  antioxidant capacity: mild antioxidant capacity
[2]; 0.9 μg/mL
  oxidative damage: 2.00 ± 0.54
[2]; 1.8 μg/mL
  oxidative damage: 1.50 ± 0.70
[2]; 7.2 μg/mL
  oxidative damage: 2.00 ± 1.41
[2]; 14.4 μg/mL
  oxidative damage: 2.50 ± 0.70
[2]; 32 μg/mL
  oxidative damage: 2.00 ± 0.54
[2]; 64 μg/mL
  oxidative damage: 2.00 ± 0.54
[2]; 128 μg/mL
  oxidative damage: 1.50 ± 0.70
[2]; 3.6 mg/mL
  oxidative damage: 1.00 ± 1.41
[2]; 256 mg/mL
  oxidative damage: 3.50 ± 0.70
[2]; 500 mg/mL
  oxidative damage: 1.50 ± 0.70
[3]; 0.9 μg/mL
  oxidative damage: 3.50 ± 0.70
[3]; 1.8 μg/mL
  oxidative damage: 3.50 ± 0.70
[3]; 7.2 μg/mL
  oxidative damage: 2.50 ± 0.70
[3]; 14.4 μg/mL
  oxidative damage: 3.50 ± 0.70
[3]; 32 μg/mL
  oxidative damage: 2.50 ± 0.70
[3]; 64 μg/mL
  oxidative damage: 1.50 ± 0.70
[3]; 128 μg/mL
  oxidative damage: 3.00 ± 1.41
[3]; 3.6 mg/mL
  oxidative damage: 2.50 ± 0.70
[3]; 256 mg/mL
  oxidative damage: 2.50 ± 2.12
[3]; 500 mg/mL
  oxidative damage: 2.50 ± 0.70
[4]; 0.9 μg/mL
  oxidative damage: 3.00 ± 1.41
[4]; 1.8 μg/mL
  oxidative damage: 3.50 ± 0.70
[4]; 7.2 μg/mL
  oxidative damage: 2.00 ± 0.54
[4]; 14.4 μg/mL
  oxidative damage: 3.50 ± 0.70
[4]; 32 μg/mL
  oxidative damage: 2.00 ± 0.54
[4]; 64 μg/mL
  oxidative damage: 3.50 ± 0.70
[4]; 128 μg/mL
  oxidative damage: 3.50 ± 0.70
[4]; 3.6 mg/mL
  oxidative damage: 2.00 ± 0.54
[4]; 256 mg/mL
  oxidative damage: 2.50 ± 0.70
[4]; 500 mg/mL
  oxidative damage: 3.00 ± 1.41
[5]; 31.25 μg/mL
  hemolysis at 2 h, 31.25 μg/mL: 1.67 ± 0.35%
[5]; 62.5 μg/mL
  hemolysis at 2 h, 62.5 μg/mL: 3.49 ± 0.26%
[5]; 125 μg/mL
  hemolysis at 2 h, 125 μg/mL: 4.45 ± 0.47%
[5]; 250 μg/mL
  hemolysis at 2 h, 250 μg/mL: 8.21 ± 0.35%
[5]; 500 μg/mL
  hemolysis at 2 h, 500 μg/mL: 10.3 ± 1.35%
[6]; 0.9 μg/mL
  oxidative damage: 2.00 ± 1.41
[6]; 1.8 μg/mL
  oxidative damage: 1.50 ± 0.70
[6]; 7.2 μg/mL
  oxidative damage: 2.00 ± 1.41
[6]; 14.4 μg/mL
  oxidative damage: 2.00 ± 0.54
[6]; 32 μg/mL
  oxidative damage: 2.50 ± 0.70
[6]; 64 μg/mL
  oxidative damage: 2.50 ± 0.70
[6]; 128 μg/mL
  oxidative damage: 2.50 ± 0.70
[6]; 3.6 mg/mL
  oxidative damage: 2.50 ± 0.70
[6]; 256 mg/mL
  oxidative damage: 2.50 ± 0.70
[6]; 500 mg/mL
  oxidative damage: 1.50 ± 0.70
[7]
  percentage modulation of oxidative damage caused by the stressor H2O2: more than 60%
[8]
  DPPH radical scavenging activity: highest scavenging activity
[9]; 0.9 μg/mL
  oxidative damage: 3.00 ± 1.41
[9]; 1.8 μg/mL
  oxidative damage: 4.50 ± 0.70
[9]; 7.2 μg/mL
  oxidative damage: 1.50 ± 2.12
[9]; 14.4 μg/mL
  oxidative damage: 4.50 ± 2.12
[9]; 32 μg/mL
  oxidative damage: 3.00 ± 1.41
[9]; 64 μg/mL
  oxidative damage: 7.00 ± 1.41^∗
[9]; 128 μg/mL
  oxidative damage: 2.50 ± 0.70
[9]; 3.6 mg/mL
  oxidative damage: 4.00 ± 1.41
[9]; 256 mg/mL
  oxidative damage: 3.00 ± 1.41
[9]; 500 mg/mL
  oxidative damage: 4.50 ± 0.70
[10]; 0.9 μg/mL
  oxidative damage: 3.50 ± 0.70
[10]; 1.8 μg/mL
  oxidative damage: 4.00 ± 2.82
[10]; 7.2 μg/mL
  oxidative damage: 3.50 ± 0.70
[10]; 14.4 μg/mL
  oxidative damage: 5.00 ± 0.0
[10]; 32 μg/mL
  oxidative damage: 4.50 ± 0.70
[10]; 64 μg/mL
  oxidative damage: 3.00 ± 1.41
[10]; 128 μg/mL
  oxidative damage: 4.50 ± 2.12
[10]; 256 μg/mL
  oxidative damage: 3.00 ± 2.82
[10]; 3.6 mg/mL
  oxidative damage: 4.00 ± 1.41
[10]; 500 mg/mL
  oxidative damage: 3.50 ± 0.70
